In patent publication US11028090B2 (Dong Wha Pharm. Co., Ltd., priority 2017, dated 2021):
Like-named read-outs stand apart in the source and are kept apart here.

Tests used:
[1] = biological target: BRD4 (BD1+BD2) bromodomain (Homo sapiens (Human), UniProt O60885); test: BRD4 binding inhibition (AlphaScreen, GST-BRD4 vs tetraacetylated histone H4 peptide)
How it was run: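 AlphaScreen read after 30 min dark incubation at room temperature with glutathione acceptor/streptavidin donor beads (10 μg/ml each). The beads were added to compound plus 100 nM biotin-H4 (K5,8,12,16-acetyl) peptide and 100 nM GST-BRD4 BD1+BD2 in pH 7.4 HEPES/Tween/BSA/DTT buffer.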

[2] = tested on: acute myelogenous leukemia cells (MV-4-11 cells)
[3] = tested on: thymus cancer cells (Ty-82 cells); test: Cytotoxicity to thymus cancer cells (Ty-82 cells), WST-1; settings: Homo sapiens, TY82, 72 h
Procedure: The following experiment was performed to evaluate the cytotoxicity of [1,2,4]triazolo[4,3-a]quinoxaline derivative according to the present invention to thymus cancer cells (Ty-82 cells).
First, thymus cancer cells (Ty-82 cells) were distributed in a 96 well plate at the density of 2.5×10^4 cells/well. 24 hours later, the plated cells were treated with the compounds of the present invention dissolved in DMSO at the different concentrations ranging from 0.01 μM to 10 μM. 72 hours later, the activities of the compounds were determined using WST-1 reagent.

[4] = tested on: acute myelogenous leukemia cells (MV-4-11 cells); test: Cytotoxicity to acute myelogenous leukemia cells (MV-4-11 cells), CCK-8; settings: Homo sapiens, MV4-11, 72 h
[5] = GST-BRD4 (BD1+BD2) / biotinylated acetyl-histone H4 (Lys5,8,12,16) peptide, read-out: IC50, BRD4 binding inhibition
[6] = GST-BRD4 (BD1+BD2) vs biotinylated acetyl-histone H4 peptide, AlphaScreen, read-out: BRD4 IC50
[7] = read-out: Ty-82 Cytotoxicity IC50
[8] = read-out: MV-4-11 Cytotoxicity IC50
[9] = read-out: IC50, cytotoxicity against thymus cancer cells
[10] = read-out: IC50, cytotoxicity against acute myelogenous leukemia cells

IC50 [1, 5] [nM] | IC50 [1, 6] [nM] | SMILES | IC50 [2] [nM] | IC50 [3, 7] [nM] | IC50 [4, 8] [nM] | IC50 [3, 9] [nM] | IC50 [4, 10] [nM] | IC50 ([1]; IC50, BRD4 binding inhibition, GST-BRD4 (BD1+BD2) / biotinylated acetyl-histone H4 (Lys5,8,12,16) peptide) [nM]
≤ 50 | 18 | COc1cc2nc(NCCCCNC(=O)NC(C)(C)C)c3nnc(C)n3c2cc1OC [Example 88, 1-tert-butyl-3-[4-(7,8-dimethoxy-1-methyl-[1,2,4]triazolo[4,3-a]quinoxaline-4-ylamino)-butyl]-urea] | – | 970 | 510 | – | – | –
≤ 50 | 28 | COc1cc2nc(NCCCCNC(=O)CC(C)(C)C)c3nnc(C)n3c2cc1OC [Example 75, N-[4-(7,8-dimethoxy-1-methyl-[1,2,4]triazolo[4,3-a]quinoxaline-4-ylamino)-butyl]-3,3-dimethyl-butyramide] | – | 790 | 340 | – | – | –
≤ 50 | 12 | COc1cc2nc(NCCCCNC(=O)OC(C)C)c3nnc(C)n3c2cc1OC [Example 60, [4-(7,8-dimethoxy-1-methyl-[1,2,4]triazolo[4,3-a]quinoxaline-4-ylamino)-butyl]-carbamic acid isopropylester] | – | 120 | 10 | ≤ 500 | ≤ 200 | –
≤ 10 | 7 | COc1cc2nc(NCCCCNC(=O)OCC(C)C)c3nnc(C)n3c2cc1OC [Example 62, [4-(7,8-dimethoxy-1-methyl-[1,2,4]triazolo[4,3-a]quinoxaline-4-ylamino)-butyl]-carbamic acid isobutylester] | – | 290 | 120 | ≤ 500 | ≤ 200 | –
≤ 50 | 22 | CCC(C)C(=O)NCCCCNc1nc2cc(OC)c(OC)cc2n2c(C)nnc12 (stereo not shown) [Example 77, N-[4-(7,8-dimethoxy-1-methyl-[1,2,4]triazolo[4,3-a]quinoxaline-4-ylamino)-butyl]-2-methyl-butyramide] | – | 920 | 150 | – | ≤ 200 | –
≤ 50 | 17 | Cc1nnc2c(NCCCCNC(=O)CC(C)C)nc3cc4c(cc3n12)OCCO4 [Example 181, 3-methyl-N-[4-(1-methyl-8,9-dihydro-7,10-dioxa-2,3,5,11b-tetraaza-cyclopenta[a]anthracene-4-ylamino)-butyl]-butyramide] | – | 300 | 50 | ≤ 500 | ≤ 200 | –
≤ 50 | 13 | COc1cc2nc(NCCCCNC(=O)OC3CCCC3)c3nnc(C)n3c2cc1OC [Example 66, [4-(7,8-dimethoxy-1-methyl-[1,2,4]triazolo[4,3-a]quinoxaline-4-ylamino)-butyl]-carbamic acid cyclopentyl-ester] | – | 58 | 110 | ≤ 500 | ≤ 200 | –
≤ 50 | 17 | COc1cc2nc(NCCCCNC(=O)c3ccc(C)nc3Cl)c3nnc(C)n3c2cc1OC [Example 108, 2-chloro-N-[4-(7,8-dimethoxy-1-methyl-[1,2,4]triazolo[4,3-a]quinoxaline-4-ylamino)-butyl]-6-methyl-nicotinamide] | – | 370 | 510 | ≤ 500 | – | –
≤ 50 | 16 | COCCOc1cc2nc(NCCCCNC(=O)OCC(C)C)c3nnc(C)n3c2cc1OCCOC [Example 168, {4-[7,8-bis-(2-methoxy-ethoxy)-1-methyl-[1,2,4]triazolo[4,3-a]quinoxaline-4-ylamino]-butyl}-carbamic acid isobutylester] | – | 600 | 90 | – | ≤ 200 | –
≤ 50 | 23 | COc1cc2nc(NCCCCNC(=O)OC(C)C)c3nnc(C)n3c2cc1C [Example 467, [4-(7-methoxy-1,8-dimethyl-[1,2,4]triazolo[4,3-a]quinoxaline-4-ylamino)-butyl]-carbamic acid isopropylester] | – | 200 | 66 | ≤ 500 | ≤ 200 | –
≤ 50 | 21 | COc1cc2nc(NCCCCNC(=O)c3ccccc3Cl)c3nnc(C)n3c2cc1OC [Example 99, 2-chloro-N-[4-(7,8-dimethoxy-1-methyl-[1,2,4]triazolo[4,3-a]quinoxaline-4-ylamino)-butyl]-benzamide] | – | 550 | 230 | – | – | –
≤ 10 | – | COc1cc(C)c2nc(NCCCCNC(=O)OC(C)C)c3nnc(C)n3c2c1 [Example 161, [4-(8-methoxy-1,6-dimethyl-[1,2,4]triazolo[4,3-a]quinoxaline-4-ylamino)-butyl]-carbamic acid isopropylester] | – | 810 | 80 | – | ≤ 200 | –
– | 61 | COc1c(C)ccc2c1nc(NCCCCNC(=O)CC(C)C)c1nnc(C)n12 [Example 135, N-[4-(6-methoxy-1,7-dimethyl-[1,2,4]triazolo[4,3-a]quinoxaline-4-ylamino)-butyl]-3-methyl-butyramide] | – | 730 | 360 | – | – | –
≤ 50 | 34 | Cc1nnc2c(NCCCCNC(=O)NC(C)C)nc3cc4c(cc3n12)OCCO4 [Example 192, 1-isopropyl-3-[4-(1-methyl-8,9-dihydro-7,10-dioxa-2,3,5,11b-tetraaza-cyclopenta[a]anthracene-4-ylamino)-butyl]-urea] | – | 680 | 420 | – | – | –
≤ 50 | 20 | COCCOc1cc2nc(NCCCCNC(=O)CC(C)C)c3nnc(C)n3c2cc1OCCOC [Example 166, N-{4-[7,8-bis-(2-methoxy-ethoxy)-1-methyl-[1,2,4]triazolo[4,3-a]quinoxaline-4-ylamino]-butyl}-3-methyl-butyramide] | – | 580 | 70 | – | ≤ 200 | –
≤ 50 | 17 | COc1ccc2c(c1)nc(NCCCCNC(=O)CC(C)C)c1nnc(C)n12 [Example 285, N-[4-(7-methoxy-1-methyl-[1,2,4]triazolo[4,3-a]quinoxaline-4-ylamino)-butyl]-3-methyl-butyramide] | – | 91 | 10 | ≤ 500 | ≤ 200 | –
≤ 50 | 22 | COc1cc2nc(NCCCCNC(=O)OCC(C)C)c3nnc(C)n3c2cc1C [Example 468, [4-(7-methoxy-1,8-dimethyl-[1,2,4]triazolo[4,3-a]quinoxaline-4-ylamino)-butyl]-carbamic acid isobutylester] | – | 230 | 73 | ≤ 500 | ≤ 200 | –
≤ 50 | 28 | COc1cc2nc(NCCCCNC(=O)CC(C)C)c3nnc(C)n3c2cc1OC [Example 74, N-[4-(7,8-dimethoxy-1-methyl-[1,2,4]triazolo[4,3-a]quinoxaline-4-ylamino)-butyl]-3-methyl-butyramide] | – | 170 | 110 | ≤ 500 | ≤ 200 | –
≤ 50 | 20 | COc1cc2nc(NCCCCNC(=O)OC(C)(C)C)c3nnc(C)n3c2cc1OC [Example 57, [4-(7,8-dimethoxy-1-methyl-[1,2,4]triazolo[4,3-a]quinoxaline-4-ylamino)-butyl]-carbamic acid-tert-butylester] | – | 740 | 760 | – | – | –
– | 55 | COc1cc2nc(NCCCCNC(=O)CC(C)C)c3nnc(C)n3c2cc1C [Example 469, N-[4-(7-methoxy-1,8-dimethyl-[1,2,4]triazolo[4,3-a]quinoxaline-4-ylamino)-butyl]-3-methyl-butyramide] | – | 94 | 10 | ≤ 500 | ≤ 200 | –
– | 63 | COc1cc2nc(NCCCCNC(=O)NC(C)C)c3nnc(C)n3c2cc1OC [Example 90] | – | 400 | 300 | ≤ 500 | – | –
≤ 50 | 28 | Cc1nnc2c(NCCCCNC(=O)OC3CCCC3)nc3cc4c(cc3n12)OCCO4 [Example 190, [4-(1-methyl-8,9-dihydro-7,10-dioxa-2,3,5,11b-tetraaza-cyclopenta[a]anthracene-4-ylamino)-butyl]-carbamic acid cyclopentylester] | – | 650 | 90 | – | ≤ 200 | –
≤ 50 | 14 | COc1cc2nc(NCCCCNC(=O)Cc3cccs3)c3nnc(C)n3c2cc1OC [Example 84, N-[4-(7,8-dimethoxy-1-methyl-[1,2,4]triazolo[4,3-a]quinoxaline-4-ylamino)-butyl]-2-thiophene-2-yl-acetamide] | – | 27 | 10 | ≤ 500 | ≤ 200 | –

SMILES | IC50 [1, 5] [nM] | IC50 [1, 6] [nM] | IC50 [2] [nM] | IC50 [3, 7] [nM] | IC50 [4, 8] [nM] | IC50 [3, 9] [nM] | IC50 [4, 10] [nM] | IC50 ([1]; IC50, BRD4 binding inhibition, GST-BRD4 (BD1+BD2) / biotinylated acetyl-histone H4 (Lys5,8,12,16) peptide) [nM]
CCc1nnc2c(NCCCCNC(=O)CC(C)C)nc3cc(OC)ccc3n12 [Example 622, [4-(7-methoxy-1-ethyl-[1,2,4]triazolo[4,3-a]quinoxaline-4-ylamino)-butyl]-3-methyl-butyramide] | ≤ 50 | 20 | 290 | – | – | – | – | –
COc1cc2nc(NCCCCNC(=O)Oc3ccccc3)c3nnc(C)n3c2cc1OC [Example 67, [4-(7,8-dimethoxy-1-methyl-[1,2,4]triazolo[4,3-a]quinoxaline-4-ylamino)-butyl]-carbamic acid phenylester] | – | 19 | – | 170 | 140 | ≤ 500 | ≤ 200 | ≤ 50
